{"source": "patent US4977172A", "about": "“Method of treating the symptoms of cognitive decline in an elderly patient employing (S)-3-ethyl-4-[(1-methyl-1H-imidazol-5-yl)-methyl]-2-oxazolidinone” (Warner-Lambert Company, priority 1989, dated 1990)", "key": {"[1]": {"test_system": "central muscarinic antagonist and agonist binding sites, rat cerebral cortex tissue", "experiment": "Receptor [3H]quinuclidinyl benzilate (RQNB) / [3H]cis-methyldioxalane (RCMD) binding, ratio of IC50 values", "details": "agonists ratio >=100, antagonists near 1, partial agonists between 1 and 100", "experimental": "The biological activity of (S)-3-ethyl-4-[(1-methyl-1H-imidazol-5-yl)methyl]-2-oxazolidinone or a pharmaceutically acceptable salt thereof as an agent for the treatment of the symptoms of cognitive decline in an elderly patient including Alzheimer's disease was evaluated using a number of tests. The activity of the aforementioned compound or pharmaceutically acceptable salt thereof as a central muscarinic binding site agonist and antagonist was measured. Thus, in the Receptor [^3 H]Quinuclidinyl Benzilate Binding Assay (RQNB), described more fully by Watson, M., et al, Journal of Pharmacology and Experimental Therapeutics, 237, pages 411-418 (1986), rat cerebral cortex tissue is treated with radiolabeled quinuclidinyl benzilate, a known muscarinic binding site antagonist. The concentration of test compound required to inhibit 50% of the binding of this muscarinic antagonist is then determined. This procedure allows a determination of the affinity of the test compound for the central muscarinic antagonist site. […] The concentration of test compound required to inhibit 50% of the binding of this muscarinic agonist is then determined. […]"}, "[2]": {"test_system": "M1 receptors / M2 receptors", "experiment": "M1/M2 receptor binding: transformed cells possessing only M1 receptors and heart tissue (M2 receptors)", "text": "On the basis of molecular biology techniques, five subtypes of muscarinic receptors have been identified. For an agent useful in the treatment of cognitive decline in a patient, the relevant receptors are M1 since they are predominantly localized in brain areas associated with memory and learning (cortex and hippocampus). For comparison, M2 receptors are predominantly localized in peripheral tissues (e.g. the heart). […] The ratio of M1/M2 is shown in Table I. (S)-3-Ethyl-4-[(1-methyl-1H-imidazol-5-yl)methyl]-2-oxazolidinone is 3-fold selective for M1receptors over M2 receptors"}, "rat [3]": {"test_system": "rat", "experiment": "Increase in rate of stomach emptying (M1 active)", "assay_type": "in vivo", "details": "PO", "text": "(§1) Thus, the receptor binding selectivity of (S)-3-ethyl-4-[(1-methyl-1H-imidazol-5-yl)methyl]-2-oxazolidinone translates into pharmacologic specificity in the whole animal with M1 actions (stomach emptying) predominating over M2 actions (enhanced intestinal motility). […] Additionally, as shown in Table I in the central nervous system the compound increases neocortical arousal as measured by quantitative electroencephalography at doses below those required to increase local cortical blood flow in rats."}, "rat [4]": {"test_system": "rat", "experiment": "Increase in smooth muscle motility of the intestines (M2 active)", "assay_type": "in vivo", "details": "PO", "text": "as §1"}, "Male Long-Evans rats": {"test_system": "Male Long-Evans rats", "experiment": "Neocortical arousal by quantitative electroencephalography (QEEG)", "assay_type": "in vivo", "details": "rat, 10.0, 32.0 and 100.0 mg/kg tested", "text": "The methodology for determining neocortical arousal in rats by quantitative electroencephalography (QEEG) is as follows:\nMale Long-Evans rats weighing 350 to 500 g were surgically implanted with stainless steel electrodes screwed into the skull surface overlying the frontal and occipital cortex. Electrodes were secured to a plastic connector (Plastic Products Model MS-363) which was permanently attached to the skull surface with dental acrylic. Animals were given one week to recover from surgery before testing.\nAfter recovery from surgery, QEEG was measured Briefly, animals were placed into sound attenuating chambers during the light cycles of the rats diurnal cycle. Animals were allowed two hours to habituate to these environments. Thereafter, EEG was recorded continuously for ten minutes before and two hours after drug administration. Every other one-second sample of EEG was converted from the time to the frequency domain using a fast fourier transformation (FFT). […] Mean power within the 0 to 4 (delta), 5 to 8 (theta), 9 to 15 (alpha), 16 to 25 (beta) Hz bands was calculated separately for each bandwidth. Total power within all bandwidths also was calculated. […]\nData from each bandwidth and total power were analyzed separately using nonparametric ranked analysis of variance (Kruskals-Wallis rank transformed analysis with repeated measures). […]"}, "awake unanesthetized rat": {"test_system": "awake unanesthetized rat", "experiment": "Heart rate in the awake unanesthetized rat", "assay_type": "in vivo", "details": "increase = M1 response, decrease = M2 response", "text": "as §1"}, "[5]": {"experiment": "Oral availability and duration of action", "details": "in vivo"}}, "data": [{"compound": "CCN1C(=O)OC[C@@H]1Cc1cncn1C", "note": "[(S)-3-ethyl-4-[(1-methyl-1H-imidazol-5-yl)methyl]-2-oxazolidinone]", "values": [{"measurement": "RQNB/RCMD (ratio of IC50 values, muscarinic antagonist/agonist binding)", "setting": "[1]", "value": 214}, {"measurement": "selectivity for M1 receptors over M2 receptors", "setting": "[2]; receptor binding", "value": 3, "unit": "fold"}, {"measurement": "M1/M2 (RECEPTOR BINDING)", "setting": "[2]; transformed cells with only M1 receptors vs heart tissue (M2)", "value": 3.3}, {"measurement": "ED50", "setting": "rat [3]", "value": 1.6, "unit": "mg/kg"}, {"measurement": "ED50", "setting": "rat [4]", "value": 13.1, "unit": "mg/kg"}, {"measurement": "ELECTROENCEPHALOGRAPHY (ACTIVE DOSE RANGE, mg/kg, PO)", "setting": "Male Long-Evans rats", "value": "10-100 mg/kg"}, {"measurement": "effect on heart rate", "setting": "awake unanesthetized rat", "value": "increases (an M1 response) rather than decreases (an M2 response) heart rate"}, {"measurement": "duration of action", "setting": "[5]", "value": "reasonable duration of action"}, {"measurement": "oral availability", "setting": "[5]; po", "value": "good oral availability"}]}]}
